Columns and labels:
[1] = test system: neuronal cultures derived from DRG; experiment: CGRP release from DRG neuronal cultures (Example 1); assay type: cell-based, rat
Procedure: Dorsal root ganglia (DRG) were dissected from all spinal levels of adult male (150-175 g) Sprague-Dawley rats (Envigo, Indianapolis, Ind.) and the cells were dissociated as previously described (Kelley et al., 2014). Briefly, the rats were euthanized by CO2 asphyxiation. DRGs were transferred into collagenase solution (1 mg/ml) and incubated for 1 hour at 37° C. The digested DRGs were then rinsed with growth medium, centrifuged and dissociated by mechanical agitation. Approximately 30,000 cells were plated into each well of 12-well culture plates. All culture dishes were precoated with poly-D-lysine and laminin. Cells were maintained in F-12 media supplemented with 10% horse serum, 2 mM glutamine, 100 μg/ml Normocin, 50 μg/ml penicillin, 50 μg/ml streptomycin, 50 μM 5-fluoro-2′-deoxyuridine, 150 μM uridine, and 30 ng/ml of NGF in 3% CO2 at 37° C. Growth medium was changed every other day.
Small interfering RNAs to APE1 (APE1siRNA) and scrambled siRNA (SCsiRNA) controls were used to decrease APE1 protein expression in sensory neuronal cell cultures and as controls, respectively, as described previously (Vasko et al., 2005, Jiang et al., 2008a). On day 3 in culture, the growth media was replaced with 0.5 ml of Opti-MEM 1 media containing 100 nM of APE1siRNA (5′-[…]-3′ (SEQ ID NO:1)) or SCsiRNA (5′-[…]-3′(SEQ ID NO:2)); (Vasko et al., 2005)) and 10 μl of the transfecting reagent, Neuroporter. On the next day, 0.5 ml of the growth media without antibiotics was added to each well, and after an additional 24 hours the media containing siRNA was replaced with normal growth media.
Lentiviral constructs containing (1) the CMV promoter, HA-tagged APE1, IRES, and enhanced green fluorescent protein (EGFP); or (2) CMV, IRES, and EGFP were developed. DNA sequencing confirmed the constructs in the pLenti6-R4R2-V5 plasmid containing WT-, C65-, or 226+177-APE1-IRES-EGFP. For lentiviral infections, DRG cells were cultured 5 days before 150 pfu/cell of the lentivirus was added to the media. Two days later, the virus was removed and the cells grown an additional 5 days in regular media.
After neuronal cultures were treated with the appropriate drugs, the cultures were washed once with HEPES buffer consisting of (in mM) 25 HEPES, 135 NaCl, 3.5 KCl, 2.5 CaCl2, 1 MgCl2, 3.3 D-glucose, and 0.1% bovine serum albumin, pH 7.4 and maintained at 37° C. They were then incubated for successive 10-minute intervals with 0.4 ml of HEPES buffer alone (basal release), with buffer containing 30 nM capsaicin, then with buffer alone (to assess return to basal release). After each incubation, the buffer was removed and the amount of immunoreactive CGRP in each sample was measured using radioimmunoassay as previously described (Chen et al., 1996). After the release experiment, the cells in each well were in 0.4 ml of 0.1 M HCl10 minutes and an aliquot taken to measure total CGRP content in the cultures using radioimmunoassay. Total content (fmol/well) was calculated by adding the total amount released in all incubations to the amount measured in the cells. The release data is calculated as fmol released/well/10 minutes.

Pharmacokinetics (PK) = settings: in vivo
Procedure: PK studies were performed in the IU Simon Cancer Center Clinical Pharmacology Analytical Core (CPAC), as previously described for E3330 (Fishel et al., 2011) and standards for the compounds used. P450 metabolism studies using human microsomes were also performed in CPAC directed by Dr. David Jones.

[2] = test system: sensory neuronal cultures; experiment: Neuronal cell viability (trypan blue exclusion); assay type: cell-based
Procedure: (§1) Primary cultures of sensory neurons were harvested and maintained as previously described (Vasko et al., 2005). Briefly, adult male Sprague-Dawley rats (150-175 g; Harlan, Indianapolis, Ind.) were euthanized by CO2 asphyxiation and dorsal root ganglia (DRG) dissected from all spinal levels, transferred to into a collagenase solution (1 mg/ml), incubated for 1 hour at 37° C., then dissociated by mechanical agitation. Approximately 30,000 cells or 60,000 cells were plated into each well of 12-well or 6-well culture plates, respectively. All culture dishes were precoated with poly-D-lysine and laminin. Cells were maintained in F-12 media supplemented with 10% horse serum, 2 mM glutamine, 100 μg/ml Normocin™, 50 μg/ml penicillin, 50 μg/ml streptomycin, 50 μM 5-fluoro-2′-deoxyuridine (Invitrogen), 150 μM uridine, and 30 ng/ml of NGF in 3% CO2 at 37° C. Growth medium was changed every other day. Experiments were performed after cells were maintained in culture for 12-14 days.
Sensory neuronal culture trypan blue exclusion analysis was performed as previously described (Vasko et al., 2011). Cells were detached by adding a 0.05% trypsin-EDTA solution and media to each well. An equal volume of 0.4% (w/v) trypan blue in PBS was added to the cell suspension and the numbers of living cells (i.e., those that exclude the dye) were counted under a phase contrast microscope using a hemacytometer. Percent survival was calculated as the percent of live cells divided by the total cell number (including dead and live cells).

[3] = test system: sensory neurons in culture; assay type: cell-based, rat
Procedure: as §1
For release experiments, cell cultures were washed with HEPES buffer consisting of (in mM) 25 HEPES, 135 NaCl, 3.5 KCl, 2.5 CaCl2, 1 MgCl2, 3.3 D-glucose, and 0.1% bovine serum albumin, pH 7.4 and maintained at 37° C. They then were incubated for successive 10-minute intervals with 0.4 ml of HEPES buffer alone (basal release), with buffer containing 30 nM capsaicin, then with buffer alone (to assess return to basal release). After each incubation, the buffer was removed and the amount of immunoreactive calcitonin-gene related peptide (CGRP) in each sample was measured using radioimmunoassay (RIA) as previously described (Chen et al., 1996). At the end of the release protocol, CGRP is extracted from the cultures and total content measured using RIA.

Q: Which results are given for CCCCCCCCC/C(=C\C1=C(C)C(=O)C(OC)=C(OC)C1=O)C(=O)O [APX3330]?
A: effect on MCP-1-induced change in CGRP release ([1]; E3330, MCP-1 0.3 μg/ml): prevented the change in CGRP release induced by MCP-1 exposure; stimulated release of CGRP in LPS-treated cultures ([1]; SCsiRNA-treated cultures, LPS 3 μg/ml 24 hours plus APE1 expression or E3330): 9.7±0.8 % of total content; half-life (Pharmacokinetics (PK)): 3.6 h; effect on cisplatin-induced cell death ([2]; 20 μM for 48 hours prior to and throughout the cisplatin treatment (24 hours)): blocked; cell death / cell viability, drug alone ([2]; 24 hours, E3330 10, 20 or 40 μM, APX2009 various concentrations): no significant cell death; effect on cisplatin-induced reduction in capsaicin-evoked CGRP release ([3]; 20 μM for 48 hours prior to and throughout exposure to 10 μM cisplatin): abolished the reduction in release; basal (resting) release or release of CGRP stimulated by 30 nM capsaicin, drug alone ([3]; 72 hours, E3330 20 μM, APX2009 10 or 20 μM, compared to untreated cells): no significant change

Reference: patent US11351130B2, “Prevention and reversal of inflammation induced DNA damage” (Indiana University Research and Technology Corporation, priority 2017, dated 2022)
